{"source": "patent US20250231157A1", "about": "“METHOD FOR DETERMINING THE PARTITION OF NAPHTHENIC ACIDS FROM A PRODUCTION WATER MIMICKING SYSTEM AND MIMICKING SYSTEM” (PETRÓLEO BRASILEIRO S.A. – PETROBRAS, priority 2023, published 2025)", "key": {"[1]": {"assay": "Partition equilibrium (migration to aqueous phase) heptol/water under pressure and temperature, central composite design, potentiometric titration", "format": "physicochemical", "conditions": "for Migration, Predicted: model value", "method": "Three multivariate experimental designs (central composite designs) were performed in which the variables pressure (up to 1 MPa) and temperature (between 25° C. and 80° C.) were considered independent variables, with the migration of three acidic species as the response factor: benzoic, pentanoic and cyclohexanepentanoic acid. For this purpose, 5 levels were defined and gave rise to 10 experiments for each acidic species (Table 4), added to two control experiments (with higher pressure and temperature, as well as in the absence of pressure and at room temperature).\nThe experiments were performed with constant salinity of 3.5% (m·v^−1), constant heptol fraction (70:30, for heptane and toluene), and acidic species concentration of 0.03 M for benzoic and pentanoic acid, and 0.01 M for cyclohexanepentanoic acid. The results were evaluated with 95% confidence, using a response surface to estimate the maximum observable effect in each case, provided that the mathematical correlation was equal to or greater than R^2: 0.75."}, "[2]": {"assay": "Partition equilibrium in reactor pressurized with CO2, in presence and absence of alkalinity (NaHCO3, Na2CO3), back titration"}, "[3]": {"assay": "Partition equilibrium under the influence of salinity (NaCl), glass reactor, neutralization titration", "format": "physicochemical", "conditions": "Salinity 0 (%, m · m^−1) NaCl"}, "[4]": {"assay": "Partition equilibrium with addition of calcium and strontium salts to the aqueous phase", "format": "physicochemical", "conditions": "for Migration: salinity 3.5%"}, "[5]": {"assay": "Partition equilibrium in the presence of demulsifiers (Dissolvan 961, Dissolvan 974)", "excerpt": "Finally, neutralization titration with a standardized NaOH titrant solution was used to determine the effect on the partition equilibrium for four acidic species (the same as in the other examples, except for dicyclohexylacetic acid)."}, "[6]": {"assay": "Partition equilibrium in the presence of surfactants (TBA, CTA, TMA)", "format": "physicochemical"}, "[7]": {"conditions": "52 °C, 0.5 MPa (experiments 9 and 10)"}}, "note": "Where “and” joins values, the source holds several entries; their conditions need not be identical. Equal values may be shown once.", "data": [{"smiles": "CCCCC(=O)O", "note": "[Pentanoic Acid, pentanoic acid]", "values": [{"measurement": "Migration, Measured", "setting": "[1]; 20 °C, 0.1 MPa (experiment 12, control)", "value": "86.6 %, mol"}, {"measurement": "Migration, Increment (related to control)", "setting": "[1]; 25 °C, 0.5 MPa (experiment 5)", "value": "−10.8 %, mol"}, {"measurement": "Migration, Measured", "setting": "[1]; 25 °C, 0.5 MPa (experiment 5)", "value": "77.3 %, mol"}, {"measurement": "Migration, Increment (related to control)", "setting": "[1]; 38 °C, 0.25 MPa (experiment 1)", "value": "−13.3 %, mol"}, {"measurement": "Migration, Measured", "setting": "[1]; 38 °C, 0.25 MPa (experiment 1), heptol 70:30, 3.5% salinity", "value": "75.1 %, mol"}, {"measurement": "Migration, Increment (related to control)", "setting": "[1]; 38 °C, 0.75 MPa (experiment 3)", "value": "−12.2 %, mol"}, {"measurement": "Migration, Measured", "setting": "[1]; 38 °C, 0.75 MPa (experiment 3)", "value": "76.1 %, mol"}, {"measurement": "Migration, Increment (related to control)", "setting": "[1]; 52 °C, 0.1 MPa (experiment 7)", "value": "−1.5 %, mol"}, {"measurement": "Migration, Measured", "setting": "[1]; 52 °C, 0.1 MPa (experiment 7)", "value": "85.3 %, mol"}, {"measurement": "Migration, Increment (related to control)", "setting": "[1]; [7]", "value": "2.2 %, mol and 1.8 %, mol"}, {"measurement": "Migration, Measured", "setting": "[1]; 52 °C, 0.5 MPa (experiments 9 and 10, centre point)", "value": "88.5 %, mol and 88.2 %, mol"}, {"measurement": "Migration, Increment (related to control)", "setting": "[1]; 52 °C, 1 MPa (experiment 8)", "value": "3.1 %, mol"}, {"measurement": "Migration, Measured", "setting": "[1]; 52 °C, 1 MPa (experiment 8)", "value": "89.4 %, mol"}, {"measurement": "Migration, Increment (related to control)", "setting": "[1]; 66 °C, 0.25 MPa (experiment 2)", "value": "−4.1 %, mol"}, {"measurement": "Migration, Measured", "setting": "[1]; 66 °C, 0.25 MPa (experiment 2)", "value": "83.1 %, mol"}, {"measurement": "Migration, Increment (related to control)", "setting": "[1]; 66 °C, 0.75 MPa (experiment 4)", "value": "−5.2 %, mol"}, {"measurement": "Migration, Measured", "setting": "[1]; 66 °C, 0.75 MPa (experiment 4)", "value": "82.2 %, mol"}, {"measurement": "Migration, Increment (related to control)", "setting": "[1]; 80 °C, 0.5 MPa (experiment 6)", "value": "0.5 %, mol"}, {"measurement": "Migration, Measured", "setting": "[1]; 80 °C, 0.5 MPa (experiment 6)", "value": "87.1 %, mol"}, {"measurement": "Migration, Increment (related to control)", "setting": "[1]; 80 °C, 1 MPa (experiment 11)", "value": "2.5 %, mol"}, {"measurement": "Migration, Measured", "setting": "[1]; 80 °C, 1 MPa (experiment 11, control)", "value": "88.8 %, mol"}, {"measurement": "Migration, Predicted", "setting": "[1]; 25 °C, 0.5 MPa (experiment 5)", "value": "74.2 %, mol"}, {"measurement": "Migration, Predicted", "setting": "[1]; 38 °C, 0.25 MPa (experiment 1)", "value": "79.9 %, mol"}, {"measurement": "Migration, Predicted", "setting": "[1]; 38 °C, 0.75 MPa (experiment 3)", "value": "82.2 %, mol"}, {"measurement": "Migration, Predicted", "setting": "[1]; 52 °C, 0.1 MPa (experiment 7)", "value": "83.6 %, mol"}, {"measurement": "Migration, Predicted", "setting": "[1]; [7]", "value": "85.4 %, mol"}, {"measurement": "Migration, Predicted", "setting": "[1]; 52 °C, 1 MPa (experiment 8)", "value": "86.3 %, mol"}, {"measurement": "Migration, Predicted", "setting": "[1]; 66 °C, 0.25 MPa (experiment 2)", "value": "86.5 %, mol"}, {"measurement": "Migration, Predicted", "setting": "[1]; 66 °C, 0.75 MPa (experiment 4)", "value": "86.9 %, mol"}, {"measurement": "Migration, Predicted", "setting": "[1]; 80 °C, 0.5 MPa (experiment 6)", "value": "85.5 %, mol"}, {"measurement": "Migration, Predicted", "setting": "[1]; 80 °C, 1 MPa (experiment 11)", "value": "85.4 %, mol"}, {"measurement": "Decrease in the tendency to migrate relative to control, maximum over the design", "setting": "[1]; pressure up to 1 MPa, 25-80 °C", "value": "up to 13.3 % mol"}, {"measurement": "Increase in migration relative to control, maximum over the design", "setting": "[1]; pressure up to 1 MPa, 25-80 °C", "value": "up to 3.1 % mol"}, {"measurement": "Migration", "setting": "[2]; 25° C. and 1.0 MPa CO2, no alkalinity", "value": 100, "unit": "% mol"}, {"measurement": "Migration", "setting": "[2]; 80° C. and 1.0 MPa CO2, no alkalinity", "value": 82.4, "unit": "% mol"}, {"measurement": "Migration", "setting": "[2]; Na2CO3 + NaHCO3, 25° C. and 0.1 MPa", "value": 61.3, "unit": "% mol"}, {"measurement": "Migration", "setting": "[2]; Na2CO3 + NaHCO3, 25° C. and 1.0 MPa CO2", "value": 100, "unit": "% mol"}, {"measurement": "Migration", "setting": "[2]; Na2CO3 + NaHCO3, 80° C. and 1.0 MPa CO2", "value": 79.9, "unit": "% mol"}, {"measurement": "Migration", "setting": "[2]; NaHCO3, 25° C. and 0.1 MPa", "value": 69.2, "unit": "% mol"}, {"measurement": "Migration", "setting": "[2]; NaHCO3, 25° C. and 1.0 MPa CO2", "value": 100, "unit": "% mol"}, {"measurement": "Migration", "setting": "[2]; NaHCO3, 80° C. and 1.0 MPa CO2", "value": 96.3, "unit": "% mol"}, {"measurement": "Migration", "setting": "[2]; Reference (heptol + 3.5% NaCl), no alkalinity", "value": 77, "unit": "% mol"}, {"measurement": "Migration", "setting": "[3]", "value": "76.7 %, mol"}, {"measurement": "Migration", "setting": "[4]; Absence of ions", "value": "77.0 %, mol"}, {"measurement": "Migration", "setting": "[4]; Calcium 400 mg · L^−1", "value": "90.0 %, mol"}, {"measurement": "Migration", "setting": "[4]; Calcium 400 mg · L^−1, listed as pentanoic acid", "value": "~100 %, mol"}, {"measurement": "Migration", "setting": "[4]; Calcium 1200 mg · L^−1", "value": "98.7 %, mol"}, {"measurement": "Migration", "setting": "[4]; Calcium 2600 mg · L^−1", "value": "96.7 %, mol"}, {"measurement": "Migration", "setting": "[4]; Strontium 400 mg · L^−1", "value": "100.0 %, mol"}, {"measurement": "Migration", "setting": "[4]; Strontium 1200 mg · L^−1", "value": "100.0 %, mol"}, {"measurement": "Migration", "setting": "[4]; Strontium 2600 mg · L^−1", "value": "100.0 %, mol"}, {"measurement": "Effect of strontium ions on migration to the aqueous phase", "setting": "[4]; strontium 400-2600 mg·L^−1", "value": "increase in migration"}, {"measurement": "Migration", "setting": "[5]; Absence of ions (no demulsifier), salinity 3.5%", "value": "77.0 %, mol"}, {"measurement": "Migration", "setting": "[5]; D961 50 mg · L^−1", "value": "67.0 %, mol"}, {"measurement": "Migration", "setting": "[5]; D961 100 mg · L^−1", "value": "70.0 %, mol"}, {"measurement": "Migration", "setting": "[5]; D961 1000 mg · L^−1", "value": "75.7 %, mol"}, {"measurement": "Migration", "setting": "[5]; D974 50 mg · L^−1", "value": "66.9 %, mol"}, {"measurement": "Migration", "setting": "[5]; D974 100 mg · L^−1", "value": "74.3 %, mol"}, {"measurement": "Migration", "setting": "[5]; D974 1000 mg · L^−1", "value": "74.8 %, mol"}, {"measurement": "Effect of demulsifiers on partition equilibrium", "setting": "[5]; up to 1000 mg·L^−1, 95% significance", "value": "no observable effect"}, {"measurement": "Migration", "setting": "[6]; Absence of surfactant, salinity 3.5%", "value": "77.0 %, mol"}, {"measurement": "Migration", "setting": "[6]; CTA100 (cetyltrimethylammonium chloride 100 mg · L^−1)", "value": "76.0 %, mol"}, {"measurement": "Migration", "setting": "[6]; CTA1000 (1000 mg · L^−1)", "value": "85.0 %, mol"}, {"measurement": "Migration", "setting": "[6]; TBA100 (tetrabutylammonium chloride 100 mg · L^−1)", "value": "76.2 %, mol"}, {"measurement": "Migration", "setting": "[6]; TBA1000 (1000 mg · L^−1)", "value": "73.3 %, mol"}, {"measurement": "Migration", "setting": "[6]; TMA100 (trimethylammonium chloride 100 mg · L^−1)", "value": "83.2 %, mol"}, {"measurement": "Migration", "setting": "[6]; TMA1000 (1000 mg · L^−1)", "value": "83.5 %, mol"}, {"measurement": "Increase in migration to the aqueous phase with CTA", "setting": "[6]; surfactant CTA, 1000 mg·L^−1", "value": "~10", "unit": "%"}, {"measurement": "Effect of TBA on migration to the aqueous phase", "setting": "[6]; surfactant TBA, different concentrations", "value": "no significant effect"}, {"measurement": "Increase in affinity for the hydrophilic phase with TMA", "setting": "[6]; surfactant TMA, from 100 mg·L^−1", "value": "approximately 10%"}]}]}
